Test system: subject's respiratory system
Assay: acoustic transmission (transfer function magnitude) monitoring of a subject's broncho-dynamic response
Format: in vivo
Conditions: FIG. 11, subject with exacerbation of asthma; combined treatment with Salbutamol and Ipratropium Bromide, treatment and recovery phase
Description: This involves introducing a sound signal having known characteristics into the airway of a subject in a step 101. The signal propagates through the lung and chest tissues to the chest wall and is detected in steps 102, 105 using one or more transducers attached to the subject at one or more locations on the thoracic surface. Preferably, baseline acoustic transmission is determined in a step 103. In a step 106, changes in the detected signal are monitored during and after administration of a broncho-effector (step 104). These changes are indicative the subject's airway response (i.e. changes in airway patency due do constriction, dilation or mucus production). The test is terminated in step 107. […] By positioning the reference transducer here, the transfer function calculated by processor 205 represents the acoustic transmission of subject's respiratory system including the lower airways, alveolar sacs, thoracic tissues etc., but excludes the effects of the apparatus used to introduce the sound (e.g. loudspeaker, tubing) and the upper airways. […] The introduced sound signal is transmitted through the subject's airways, lung parenchyma and chest wall tissues such as muscle, ribs, skin etc. and in a step 102, is detected at one or more locations on the thoracic surface. […]

SMILES | airway patency
CC(C)(C)NCC(O)c1ccc(O)c(CO)c1 (centres unmarked) [Salbutamol] | gradual improvement
CC(C)[N+]1(C)[C@@H]2CC[C@H]1CC(OC(=O)C(CO)c1ccccc1)C2.[Br-] (some centres unmarked) [Ipratropium Bromide] | gradual improvement

From patent US20120215126A1, “DETERMINING DYNAMIC AIRWAY RESPONSE IN A SUBJECT” (priority 2009, published 2012)
